Data on two molecules can be found in patent US10258692B2, “Oral pharmaceutical formulation of BCS class III molecules” (ETHYPHARM, priority 2012, dated 2019).

≈ marks a conversion by molar mass, not a printed value. Read-outs that look alike come from different tables or passages of the source.

Data set [1] is described as follows: Baclofen solubility assays (visual method). Format: physicochemical. As to conditions: for solubility at 24 h: thermodynamic from solid. How it is done:
Beforehand it is important to determine the solubility of the active ingredient in the excipients to be evaluated. For the purpose of cell assays, it is important that the active ingredient should be in molecular form to obtain cross-membrane transport. Solubility was determined via visual method by adding exactly weighed quantities of baclofen to the selected excipients, after being left under agitation for 24 h. First the solubility of baclofen at ambient temperature in Labrasol®, Miglyol® 810 and Captex® 355 was determined. The solubility of baclofen in Gélucire® 50/13 was determined after melting the excipient at a temperature higher than 50° C. and placing thereof in a thermostat-controlled oven at 60° C. At a second step, to increase the solubility of baclofen in an aqueous medium, this solubility was determined in an acidified solution of 0.01 M fumaric acid.
The solubility values indicated in Table 7 below were determined in relation to visual observation of particles in the media.

The nature of data set [2]: Physicochemical characteristics of baclofen (internal report). The procedure:
Baclofen (FIG. 1) is a BCS class III molecule.
The transport mechanism of baclofen (Merino, et al., 1989) is active transport by means of transporters but these are saturated at high dose. Not knowing the transporter composition of the Caco-2 cells, it is sought to have a high concentration of baclofen in the formulas so that the transporters that are present are saturated. Therefore only the increase in paracellular transport was evaluated. The saturation concentration of baclofen in water is 3 mg/ml (internal pre-formulation report). However, its solubility is highly dependent on pH as indicated by the amine and carboxylic functions present on the molecule. Therefore the addition of 0.01 M fumaric acid shown to be compatible with baclofen by the internal pre-formulation report, allows the solubility of baclofen to be increased twofold to 6 mg/ml. The pH is then 3.88.

For data set [3] the following is noted: Benet, et al., 2011; cited from earlier work.
The nature of data set [4]: Permeability assay on Caco-2 cells (apparent permeability). The class given is in vitro ADME, human. The conditions noted are these: human. An excerpt:
(§1) The Caco-2 cells are derived from the culture of human cells of cancerous origin capable of differentiating in the presence of a suitable culture medium (Pontier, 1997-1998). Their properties are a function of the number of subcultures to which they are subjected. […] The brush-border is differentiated and developed with very tight junctions of 10 to 50 Å (narrower than those of the small intestine). From a biochemical viewpoint, Caco-2 cells also express the enzymes of the enterocytes. In addition, numerous transporters are present but their expression is lower than the levels found in vivo and the P-gp efflux pump is over-expressed which may underestimate absorption compared with in vivo.
(§2) The Caco-2 cells were placed in culture and differentiated over 21 to 30 days. They were subjected to a number of subcultures of less than 110. The culture medium was DMEM (Dulbecco's Modified Eagle Medium) supplemented with inactivated 10% foetal calf serum, with 1% non-essential amino acids and antibiotics.
(§3) The Caco-2 cells allowed evaluation of the potential of eight formulas given in Tables 5a, 5b, 5c and 5d, for improvement in the apparent permeability of baclofen. The dilutions are those chosen by the subcontractor as a function of baclofen concentration measured by the assay technique and as a function of the […] non-toxic concentration given by preliminary toxicity studies.
(§4) Samples were taken after the placing the test specimen in the apical medium: at T5 minutes and T125 minutes in the donor compartment and at T65 minutes and T125 minutes in the receiver compartment. […]
(§5) The apparent permeability of baclofen and the recovery ratio were calculated as follows: Papp=[ΔQ/(Δt×A)]/C0 where Papp=apparent permeability (cm·s^−1) • ΔQ=difference in amount of baclofen measured between the two samplings • Δt=time interval between the two samplings • A=exposure surface area (cm^2) • C0=initial concentration deposited in the donor compartment.
(§6) Each assay was performed three times. For the validity of the assay, the permeability of a reference compound was also measured as positive control. […]
(Caco-2 monolayers are a common model of the intestinal barrier.)

In data set [5] the test system is Caco-2 cells. Described as above. Format: in vitro ADME, human. As to conditions: Caco-2, apical pH 6.8 to basolateral pH 7.4; listed as non-formulated baclofen.
Excerpt: as §1, §2, §3, §4, §5, §6

For data set [6], the system named is Caco-2 cells. The experiment in a line: Lucifer Yellow test (paracellular transport, tight junctions). The class given is cell-based, human. From the text:
Lucifer yellow (LY) is a marker of paracellular transport (Buyukorturk, et al., 2010). Its measurement in the receiver compartment during the permeability assay allows observation of the opening of the tight junctions. Measurement can also be performed after the assay to evaluate cell integrity (Nollevaux, et al., 2006). The apparent permeability of Lucifer Yellow under normal conditions is […] (Oroxcell, 2011).
Throughout the assays the crossing of Lucifer Yellow from the apical to the basolateral compartment, a marker of paracellular transport, was also evaluated. 200 μM of Lucifer Yellow was co-incubated with the test compound and its permeability evaluated in the same manner as for the latter. Concentrations were measured by fluorescence in both compartments at the start and at the end of the assay.

The term solubility denotes the concentration that dissolves in the medium under given conditions. Broadly, the logP is a log measure of how a compound divides between an organic and an aqueous phase. One may read the log P as the decadic logarithm of the partition coefficient of the neutral form, usually between octanol and water. Take `NCC(CC(=O)O)c1ccc(Cl)cc1` (stereo not drawn) [baclofen, Baclofen]: the “pH of the baclofen solution” value in data set [1] (6 mg/ml baclofen in 0.01 M fumaric acid) was 3.88. Besides, the solubility at 24 h in data set [1] (0.01 M fumaric acid aqueous solution, pH 3.88, aqueous buffer, in 0.01M fumaric acid aqueous medium, ambient, read-out: Solubility of baclofen) is 6000 to 7000 µg/mL (≈ 28.1 to 32.8 mM); in data set [1] (Gélucire 50/13 (molten), oil or lipid, in Gélucire ® 50/13, 60° C., read-out: Solubility of baclofen), 500 to 1000 µg/mL (≈ 2.34 to 4.68 mM); in data set [1] (liquid absorption enhancers, oil or lipid, read-out: solubility of the active ingredient in the liquid absorption enhancers), under 1000 µg/mL; in data set [1] (oil or lipid, in Captex ® 355, ambient, read-out: Solubility of baclofen), under 100 µg/mL; in data set [1] (oil or lipid, in Labrasol ®, ambient, read-out: Solubility of baclofen) it was 200 to 400 µg/mL (≈ 0.936 to 1.87 mM); in data set [1] (oil or lipid, in Miglyol ® 810, ambient, read-out: Solubility of baclofen), under 100 µg/mL. The solubility in words result is reported as “soluble” in data set [1] (aqueous medium) and “practically insoluble” in data set [1] (oil excipients). The log partition coefficient (logP) in data set [2] is -1. Further, the “pH of a saturated solution” value in data set [2] came to 6.5. The pKa1 result in data set [2] was “pKa1 = 3.87”. In data set [2], the pKa2 result is “pKa2 = 9.62”. Moreover, the Solubility entry in data set [2] (0.1N HCl, 0.1N NaOH) was “Soluble: 0.1N HCl, 0.1N NaOH”; in data set [2] (Ethanol, Methanol), “Very slightly soluble: Ethanol, Methanol”; in data set [2] (water, read-out: Solubility (saturation concentration) in water), 3000 µg/mL (≈ 14 mM). For the same molecule, the “log P” value in data set [3] is −0.96. Further, in data set [4] (Caco-2, Caco-2, apical pH 6.8 to basolateral pH 7.4, read-out: apparent permeability of baclofen), the Papp A→B at 125 min is under 0.3 ×10⁻⁶ cm/s. Further, in data set [5], the “apparent permeability of baclofen” value is on record as “lower than 0.5×10^−6 cm/s”.

With `COCCc1ccc(OCC(O)CNC(C)C)cc1` (stereo not drawn) [metoprolol], in data set [4] (Caco-2, 20 μM metoprolol, positive control), the Papp A→B at 125 min, 20 μM was over 6 ×10⁻⁶ cm/s. The “opening of the tight junctions, in words” value in data set [6] is “lack of effect”.
